Experimental data published in US11958815B1, “N′-(2-(5-phenyl-1,3,4-oxadiazol-2-ylthio)acetoxy)-2-naphthimidamide as antimicrobial compound” (KING FAISAL UNIVERSITY, priority 2023, dated 2024).

Legend:
[1] = tested on: Bacillus cereus; assay: Agar plate disc-diffusion, antibacterial activity by inhibition zone; settings: nutrient agar, 37° C., 48 hours, DMSO zone subtracted
[2] = tested on: Escherichia coli; assay: as above; settings: nutrient agar, 37° C., 48 hours, DMSO zone subtracted
[3] = tested on: Chrysosporium keratinophilum; assay: Agar plate disc-diffusion, antifungal activity by inhibition zone; settings: Sabouraud's dextrose agar, 37° C., 72 hours, DMSO zone subtracted
[4] = tested on: Aspergillus flavus; assay: as above; settings: Sabouraud's dextrose agar, 37° C., 72 hours, DMSO zone subtracted
[5] = tested on: Staphylococcus aureus; assay: Agar plate disc-diffusion, antibacterial activity by inhibition zone; settings: nutrient agar, 37° C., 48 hours, DMSO zone subtracted
[6] = tested on: Pseudomonas aeruginosa; assay: as above; settings: nutrient agar, 37° C., 48 hours, DMSO zone subtracted
[7] = A = concentration of comp. = 10,000 μL
[8] = B = concentration of comp. = 30.000 μL
[9] = C = concentration of comp. = 50,000 μL

SMILES: N/C(=N\OC(=O)CSc1nnc(-c2ccccc2)o1)c1ccc2ccccc2c1 [Comp 3, N′-(2-(5-phenyl-1,3,4-oxadiazol-2-ylthio)acetoxy)-2-naphthimidamide]
- inhibition zone, Bacillus Cereus [1, 7]: 28 mm
- inhibition zone, Bacillus Cereus [1, 8]: 32 mm
- inhibition zone, Bacillus Cereus [1, 9]: 40 mm
- inhibition zone, Escherichia coli [2, 7]: 31 mm
- inhibition zone, Escherichia coli [2, 8]: 39 mm
- inhibition zone, Escherichia coli [2, 9]: 48 mm
- inhibition zone, Chrysosporium keratinophilum [3, 7]: 31 mm
- inhibition zone, Chrysosporium keratinophilum [3, 8]: 39 mm
- inhibition zone, Chrysosporium keratinophilum [3, 9]: 45 mm
- inhibition zone, Aspergillus flavus [4, 7]: 26 mm
- inhibition zone, Aspergillus flavus [4, 8]: 29 mm
- inhibition zone, Aspergillus flavus [4, 9]: 39 mm
- inhibition zone, Staphylococcus aureus [5, 7]: 25 mm
- inhibition zone, Staphylococcus aureus [5, 8]: 31 mm
- inhibition zone, Staphylococcus aureus [5, 9]: 40 mm
- inhibition zone, Pseudomonas aeruginosa [6, 7]: 27 mm
- inhibition zone, Pseudomonas aeruginosa [6, 8]: 34 mm
- inhibition zone, Pseudomonas aeruginosa [6, 9]: 40 mm
